Measured values: patent publication US7053100B2, “Therapeutic nucleosides” (priority 1991, dated 2006)
Values joined by “and” are separate entries in the source; they are usually repeats but may differ in a detail not shown here. Identical values can stand only once.

Tested on: Hepatitis B Virus (HBV) in human HBV producer cell line of HepG2, 2.2.15
Conditions: 100 μM compound, 2.2.15 cells
Experimental: Antiviral Activity Against Hepatitis B Virus (HBV)
The human HBV producer cell line of HepG2, 2.2.15, described and characterized by Sells et al., PNAS 84:1005, 1987 and J. Virol. […] This cell line was utilized in vitro to identify compounds with anti-HBV activity.
Supernatant media containing extracellular virion DNA (Dane particles) were harvested on days three, six and ten, treated with proteinase K (1 mg/mL) and sodium dodecyl sulfate (1%), and incubated at 50° C. for one hour. DNA was extracted with equal volumes of phenol followed by chloroform and then precipitated by ammonium acetate and propanol. The DNA precipitate was dissolved and collected on nitrocellulose using the procedure of Schleicher and Schuell (S & S, 10 Optical Ave., Keene, N.H. 03431, Publication No. 700, 1987), and treated as described by Southern, J. Mol. Biol. 98:503, 1975. Cells were harvested, and the intracellular DNA was obtained after cell lysis with guanidine isothiocyanate. The intracellular DNA was handled in the same manner as the extracellular DNA. After precipitation by ammonium acetate and propanol, the intracellular DNA precipitate was dissolved, cut by restriction endonuclease, Hind III, applied to agarose gel and then treated as described by Southern to determine the quantity of replicative intermediate forms.

[1] = analysis 24 hours following the 10th day of treatment, duplicate cultures, experiments A and B

Nc1nc(=O)n([C@@H]2CS[C@H](CO)O2)cc1F (racemic) [cis-1-(2-(Hydroxymethyl)-1,3-oxathiolan-5-yl)-5-fluoro-cytosine]
HBV DNA in Culture Medium, Day 0 (Day 0, zero = undetectable, sensitivity cutoff 0.1 pg/mL): 90 pg/mL | HBV DNA in Culture Medium, Day 10 (Day 10, zero = undetectable, sensitivity cutoff 0.1 pg/mL): 0 pg/mL | Intracellular HBV DNA, Monomer [1]: 0.8 pg/μg cell DNA and 0.7 pg/μg cell DNA | Intracellular HBV DNA, Replicative intermediate [1]: 1 pg/μg cell DNA and 2 pg/μg cell DNA
